Test results: patent publication US8138177B2 (dated 2012)
Structures can show the parent of a compound that is named as a salt.

melting point [°C]	Compound
190.7	Cc1cccc2c1n(CCS(C)(=O)=O)c(=O)n2C(=O)N[C@H](C(=O)N(C)C)C(C)(C)C
217.1	CC[C@H](C)[C@H](NC(=O)n1c(=O)n(CCN2CCCCC2)c2ccccc21)C(N)=O (as salt: hydrochloride)
